Patent publication US20250122219A1 (priority 2023, published 2025)
Converted amounts (≈) assume the structure as drawn. Like-named read-outs stand apart in the source and are kept apart here.

Tests used:
[1] = Cytotoxicity assay in MT-4 cells; type: cell-based; settings: human; uninfected MT-4 cells, 5 days incubation, Cell Titer Glo; read-out: MT4 CC50
In short: (§1)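 Viability read by Cell Titer Glo luminescence after 5 days at 37 °C. MT-4 cells, not infected, in complete RPMI (10% FBS), received compound dilution series. Base cytotoxicity set with […] puromycin.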

physchem = type: physicochemical; settings: ambient temperature, 5 mg/mL dose concentration; for solubility thermodynamic / solubility thermodynamic at 24 h: 23 °C, thermodynamic from solid; for solubility thermodynamic: aqueous buffer; for solubility thermodynamic at 24 h: FaSSIF
Description: Approximately 7 mg of each test compound as a dry powder was placed in a vial. Aliquots were weighed out for each assay media at 2 hour and 24 hour time points, to be analyzed. The appropriate buffer (FaSSIF or PBS) was added to each vial such that the final dose concentration of 5 mg/mL was achieved. […] The plate was sealed with a pierceable heat seal and analyzed by HPLC-UV.
A system QC (0.01 mg/mL Caffeine in DMSO) was injected every 12-15 injections. […] Results are reported using data obtained at 280 nm. The resulting peak areas were plotted against the known concentrations from the calibration and the filtrates are quantified with respect to the linear regression using Agilent OpenLab Intelligent Reporting Software. The results are reported electronically in mg/mL.

HIV-1 (IIIB) = test: Antiviral assay in MT-4 cells; type: cell-based; settings: HIV-1 IIIB in MT-4 cells, 5 days incubation, Cell Titer Glo, read-out: MT4 EC50
In short: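 Read-out: CellTiter-Glo luminescence after 5 days at 37 °C, reflecting survival of MT-4 cells infected with HIV-1 IIIB (1:250 fresh stock dilution) versus mock-infected. Compounds serially diluted into RPMI with 10% FBS; AZT at 5 μM served as positive control.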

MT-4 cells = test: Cytotoxicity assay in MT-4 cells; type: cell-based; settings: uninfected MT-4 cells, 5 days incubation, Cell Titer Glo; read-out: MT4 CC50
In short: as §1

[2] = Human immunodeficiency virus 1, MT4, 120 h

SMILES | CC50 at 5 days [1] | solubility thermodynamic (physchem; PBS) | solubility thermodynamic at 24 h (physchem) | EC50 (HIV-1 (IIIB); [2]) | CC50 (MT-4 cells) | EC50 (HIV-1 (IIIB)) | Thermodynamic PBS Solubility (mg/mL) (physchem; PBS)
CC(=O)Oc1c2n(cc(C(=O)NCc3ccc(F)cc3F)c1=O)[C@@H]1CN(C2=O)[C@@H](C)CC[C@]12CC(C)=NO2 [Example 16, (3′S,5S,7′R)-10′-((2,4-difluorobenzyl)carbamoyl)-3,3′-dimethyl-1′,11′-dioxo-1′,4′,5′,11′-tetrahydro-3′H,4H,7′H-spiro[isoxazole-5,6′-[2,7]methanopyrido[1,2-a][1,4]diazonin]-12′-yl acetate] | 11.2 µM | 372 µg/mL | 270 µg/mL | 0.0013 µM |  |  | 
COCCOC(=O)OCOc1c2n(cc(C(=O)NCc3ccc(F)cc3F)c1=O)[C@@H]1CN(C2=O)[C@@H](C)CC[C@]12CC(OC)=NO2 [Example 5, (((3′S,5S,7′R)-10′-((2,4-difluorobenzyl)carbamoyl)-3-methoxy-3′-methyl-1′,11′-dioxo-1′,4′,5′,11′-tetrahydro-3′H,4H,7′H-spiro[isoxazole-5,6′-[2,7]methanopyrido[1,2-a][1,4]diazonin]-12′-yl)oxy)methyl (2-methoxyethyl) carbonate] | 39.8 µM | 39 µg/mL (≈ 61.5 µM) | 168 µg/mL (≈ 265 µM) | 0.00409 µM |  |  | 
COC(=O)OCOc1c2n(cc(C(=O)NCc3ccc(F)cc3F)c1=O)[C@@H]1CN(C2=O)[C@@H](C)CC[C@]12CC(C)=NO2 [Example 12, (((3′S,5S,7′R)-10′-((2,4-difluorobenzyl)carbamoyl)-3,3′-dimethyl-1′,11′-dioxo-1′,4′,5′,11′-tetrahydro-3′H,4H,7′H-spiro[isoxazole-5,6′-[2,7]methanopyrido[1,2-a][1,4]diazonin]-12′-yl)oxy)methyl methyl carbonate] | 25.9 µM |  | 30 µg/mL (≈ 52.2 µM) | 0.00381 µM |  |  | 
CC1=NO[C@@]2(CC[C@H](C)N3C[C@H]2n2cc(C(=O)NCc4ccc(F)cc4F)c(=O)c(OC(=O)C(C)(C)C)c2C3=O)C1 [Example 19, (3′S,5S,7′R)-10′-((2,4-difluorobenzyl)carbamoyl)-3,3′-dimethyl-1′,11′-dioxo-1′,4′,5′,11′-tetrahydro-3′H,4H,7′H-spiro[isoxazole-5,6′-[2,7]methanopyrido[1,2-a][1,4]diazonin]-12′-yl pivalate] | 12.3 µM |  | 83 µg/mL (≈ 145 µM) | 0.00153 µM |  |  | 
COC(=O)OCOc1c2n(cc(C(=O)NCc3ccc(F)cc3F)c1=O)[C@@H]1CN(C2=O)[C@@H](C)CC[C@]12CC(OC)=NO2 [Example 11, (((3′S,5S,7′R)-10′-((2,4-difluorobenzyl)carbamoyl)-3-methoxy-3′-methyl-1′,11′-dioxo-1′,4′,5′,11′-tetrahydro-3′H,4H,7′H-spiro[isoxazole-5,6′-[2,7]methanopyrido[1,2-a][1,4]diazonin]-12-yl)oxy)methyl methyl carbonate] |  |  |  |  | 36.8 µM | 0.00834 µM | 
CCCCC(=O)Oc1c2n(cc(C(=O)NCc3ccc(F)cc3F)c1=O)[C@@H]1CN(C2=O)[C@@H](C)CC[C@]12CC(C)=NO2 [Example 17, (3′S,5S,7′R)-10′-((2,4-difluorobenzyl)carbamoyl)-3,3′-dimethyl-1′,11′-dioxo-1′,4′,5′,11′-tetrahydro-3′H,4H,7′H-spiro[isoxazole-5,6′-[2,7]methanopyrido[1,2-a][1,4]diazonin]-12′-yl pentanoate] | 10.2 µM |  |  | 0.00128 µM |  |  | <LOD
